In PubChem BioAssay AID252 (DTP/NCI, 2004):
Inconclusive results and toxic doses are left out. The calls were made as follows: active = survival T/C of 150% or more; inactive = T/C below 125% in these data.

Test system: BDF1 mice, intracerebral L1210 leukemia, survival T/C
Test: NCI In Vivo Anticancer Drug Screen. Data for tumor model L1210 Leukemia (intracerebral) in B6D2F1 (BDF1) mice
Settings: endpoint: mean survival time, higher = longer survival
Experimental: The antitumor activity of compounds was measured in mice bearing transplantable tumors. Survival or tumor size were measured and the results are expressed as the measurement made in the treated group (T) divided by the measurement made in the vehicle treated control group (C). The tumor model used in this assay is L1210 Leukemia (intracerebral) in B6D2F1 (BDF1) mice

Measured: T/C

CC12CC3(C)CC(C)(C1)CC(NC(=O)N(CCCl)N=O)(C2)C3
inactive: dose: 45.0 mg/kg/injection, schedule: Q01DX001 (ip), vehicle: other 95 % of control | dose: 60.0 mg/kg/injection, schedule: Q01DX001 (ip), vehicle: other 97 % of control | dose: 90.0 mg/kg/injection, schedule: Q01DX001 (ip), vehicle: other 104 % of control | dose: 125.0 mg/kg/injection, schedule: Q01DX001 (ip), vehicle: other 110 % of control | dose: 187.0 mg/kg/injection, schedule: Q01DX001 (ip), vehicle: other 112 % of control

CCn1cnc2c(SC(C)C)ncnc21
inactive: dose: 16.0 mg/kg/injection, schedule: Q01DX Z (ip), vehicle: carboxymethylcellulose (CMC) 100 % of control | dose: 31.0 mg/kg/injection, schedule: Q01DX Z (ip), vehicle: carboxymethylcellulose (CMC) 109 % of control | dose: 62.0 mg/kg/injection, schedule: Q01DX Z (ip), vehicle: carboxymethylcellulose (CMC) 110 % of control

CC[n+]1ccc(Nc2ccc(NC(=O)c3ccc(Nc4cc[n+](CC)c5ccc(N)cc45)cc3)cc2)cc1
inactive: dose: 1.0 mg/kg/injection, schedule: Q01DX009 (ip), vehicle: water 100 % of control | dose: 2.0 mg/kg/injection, schedule: Q01DX009 (ip), vehicle: water 102 % of control | dose: 4.0 mg/kg/injection, schedule: Q01DX009 (ip), vehicle: water 111 % of control | dose: 8.0 mg/kg/injection, schedule: Q01DX009 (ip), vehicle: water 97 % of control

O=NN(CCCl)C(=O)Nc1cc(NC(=O)N(CCCl)N=O)cc(C(=O)O)c1
inactive: dose: 1.5 mg/kg/injection, schedule: Q01DX001 (ip), vehicle: carboxymethylcellulose (CMC) 108 % of control | dose: 3.0 mg/kg/injection, schedule: Q01DX001 (ip), vehicle: carboxymethylcellulose (CMC) 106 % of control | dose: 5.0 mg/kg/injection, schedule: Q01DX001 (ip), vehicle: carboxymethylcellulose (CMC) 104 % of control | dose: 8.0 mg/kg/injection, schedule: Q01DX001 (ip), vehicle: carboxymethylcellulose (CMC) 104 % of control | dose: 12.0 mg/kg/injection, schedule: Q01DX001 (ip), vehicle: carboxymethylcellulose (CMC) 102 % of control | dose: 18.0 mg/kg/injection, schedule: Q01DX001 (ip), vehicle: carboxymethylcellulose (CMC) 110 % of control | dose: 26.0 mg/kg/injection, schedule: Q01DX001 (ip), vehicle: carboxymethylcellulose (CMC) 106 % of control | dose: 40.0 mg/kg/injection, schedule: Q01DX001 (ip), vehicle: carboxymethylcellulose (CMC) 93 % of control | dose: 60.0 mg/kg/injection, schedule: Q01DX001 (ip), vehicle: carboxymethylcellulose (CMC) 87 % of control

CSCS(=O)C[C@H](CO)NC(=O)/C=C/c1c(C)[nH]c(=O)[nH]c1=O (some centres not stated)
inactive: dose: 1.1 mg/kg/injection, schedule: Q01DX001 (ip), vehicle: carboxymethylcellulose (CMC) 95 % of control | dose: 1.7 mg/kg/injection, schedule: Q01DX001 (ip), vehicle: carboxymethylcellulose (CMC) 101 % of control | dose: 2.6 mg/kg/injection, schedule: Q01DX001 (ip), vehicle: carboxymethylcellulose (CMC) 98 % of control

CN(N=O)C(=O)N[C@@H](C=O)[C@@H](O)[C@H](O)[C@H](O)CO
inactive: dose: 15.0 mg/kg/injection, schedule: Q01DX009 (ip), vehicle: saline 105 % of control | dose: 22.0 mg/kg/injection, schedule: Q01DX009 (ip), vehicle: other 98 % of control | dose: 30.0 mg/kg/injection, schedule: Q01DX005 (ip), vehicle: saline 105 % of control | dose: 30.0 mg/kg/injection, schedule: Q01DX009 (ip), vehicle: saline 108 % of control | dose: 33.0 mg/kg/injection, schedule: Q01DX009 (ip), vehicle: other 100 % of control | dose: 50.0 mg/kg/injection, schedule: Q01DX009 (ip), vehicle: other 95 % of control | dose: 60.0 mg/kg/injection, schedule: Q01DX005 (ip), vehicle: saline 101 % of control | dose: 60.0 mg/kg/injection, schedule: Q01DX009 (ip), vehicle: saline 109 % of control | dose: 75.0 mg/kg/injection, schedule: Q01DX009 (ip), vehicle: other 94 % of control | dose: 113.0 mg/kg/injection, schedule: Q01DX009 (ip), vehicle: other 93 % of control | dose: 120.0 mg/kg/injection, schedule: Q01DX005 (ip), vehicle: saline 107 % of control | dose: 120.0 mg/kg/injection, schedule: Q01DX009 (ip), vehicle: saline 113 % of control | dose: 240.0 mg/kg/injection, schedule: Q01DX005 (ip), vehicle: saline 105 % of control
